Where “and” joins values, the source holds several entries; their conditions need not be identical. Equal values may be shown once. Calls of active or inactive are those of the source. How the calls were made is not given here.

System in one experiment: not listed separately
Put plainly: Inducers of light in absence of autoinducers, V. cholerae BH1578, confirmatory (AID 686929). The settings on record: V. cholerae BH1578 lux luminescence induction, 6 h; at 35 µM (top of the series).
For the molecule `O=C(CC1CCCCC1)Nc1nnc(-c2ccc3c(c2)CCCC3)o1`, the activation (light induction) is 0.065% (inactive).

The experiment is the same for the next values; noted with them: V. cholerae BH1578 lux luminescence induction, 6 h; at 80 µM (top of the series).
In the case of `O=C(Nc1nnc(-c2ccc3c(c2)CCCC3)o1)C1CCC1`, the activation (light induction) is -0.004% (inactive).

For the molecule `Cn1cnc(=O)c2ccccc21`, the activation (light induction) is 0.023% (inactive).

In the case of `O=c1ncn(-c2ccccc2Cl)c2ccccc12`, the activation (light induction) was 0.05% (inactive).

As to `O=c1ncn(-c2ccccc2)c2ccccc12`, the activation (light induction) was 4.58% (inactive).

Consider `O=C(Nc1nnc(-c2cccc(Cl)c2)o1)C1CCCCC1`, for which the activation (light induction) was 0.048% (inactive).

On to `Cc1ccc2c(=O)ncn(-c3cccc(Cl)c3)c2c1`, for which the activation (light induction) is 0.023% (inactive).

`CCc1nc(=O)c2ccccc2n1-c1cccc(Cl)c1`: the activation (light induction) is 0.156% (inactive).

On to `Cc1nc(=O)c2ccccc2n1-c1cccc(Cl)c1`, for which the activation (light induction) is 9.66% (inactive).

As to `Cc1ccc2cc3c(NC(=O)c4ccoc4)nn(C)c3nc2c1`, the activation (light induction) was 0.289% (inactive).

Turning to `COC(=O)c1ccccc1Nc1cccc(Cl)c1`, the activation (light induction) is 0.155% (inactive).

As for `O=c1ncn(-c2ccc(F)c(Cl)c2)c2ccccc12`, the activation (light induction) is 1.31% (inactive).

Regarding `O=C(Nc1nnc(-c2ccc3c(c2)OCCO3)o1)C1CCCC1`, the activation (light induction) was 0.417% (inactive).

Turning to `O=C(Nc1nnc(-c2ccc(Cl)cc2)o1)C1CCCCC1`, the activation (light induction) was 0.013% (inactive).

As to `CCOC(=O)c1ccccc1Nc1cccc(Cl)c1`, the activation (light induction) is 0.004% (inactive).

Take `O=c1[nH]cnc2ccccc12`: the activation (light induction) was 0.008% (inactive).

For the molecule `O=c1nc(-c2ccccc2)n(-c2cccc(Cl)c2)c2ccccc12`, the activation (light induction) was -0.004% (inactive).

Turning to `O=c1ncn(-c2ccc(Cl)cc2)c2ccccc12`, the activation (light induction) is 0.027% (inactive).

With `CCC(C)(C)C(=O)Nc1nnc(-c2ccc3c(c2)OCCO3)o1`, the activation (light induction) was -0.001% (inactive).

Take `Cc1ccc(-n2cnc(=O)c3ccccc32)cc1Cl`: the activation (light induction) was 0.197% (inactive).

For `COc1ccc(-n2cnc(=O)c3ccccc32)cc1Cl`, the activation (light induction) is 0.017% (inactive).

For `Cc1cccc(-n2cnc(=O)c3ccccc32)c1`, the activation (light induction) is 6.74% (inactive).

`O=C(CC1CCCCC1)Nc1nnc(-c2cccnc2)o1`: the activation (light induction) is -0.004% (inactive).

Consider `COc1cccc(-n2cnc(=O)c3ccccc32)c1`, for which the activation (light induction) is 0.108% (inactive).

As for `O=C1C(=O)N(Cc2cccc(Cl)c2)c2ccccc21`, the activation (light induction) is 0.001% (inactive).

As to `O=c1ncn(-c2ccc(Cl)c(Cl)c2)c2ccccc12`, the activation (light induction) was 0.027% (inactive).

As to `O=C1C(=O)N(Cc2ccccc2Cl)c2ccccc21`, the activation (light induction) is 0.156% (inactive).

For `NC(=O)c1ccccc1Nc1cccc(Cl)c1`, the activation (light induction) was 0.018% (inactive).

Take `O=c1ncn(-c2cccc(Cl)c2)c2cccc(Cl)c12`: the activation (light induction) is 0% (inactive).

In the case of `O=c1ncn(-c2cccc(Cl)c2)c2cc(Cl)ccc12`, the activation (light induction) is 0.003% (inactive).

On to `O=c1ncn(-c2cccc(Cl)c2)c2ccc(Cl)cc12`, for which the activation (light induction) was 3.29% (inactive).

Turning to `Cc1ccc2c(c1)c(=O)ncn2-c1cccc(Cl)c1`, the activation (light induction) was 2.5% (inactive).

Regarding `NC(=O)c1ccccc1Nc1ccccc1`, the activation (light induction) was 0.096% (inactive).

In the case of `O=C(CSc1nc2ccccc2c(=O)[nH]1)NC1CCCCC1`, the activation (light induction) was 0.005% (inactive).

Take `O=c1ncn(Cc2ccc(Cl)cc2)c2ccccc12`: the activation (light induction) was 0.035% (inactive).

In the case of `COc1ccc2c(=O)ncn(-c3cccc(Cl)c3)c2c1`, the activation (light induction) is 0.008% (inactive).

`O=C(O)c1ccccc1Nc1cccc(Cl)c1`: the activation (light induction) is 0.019% (inactive).

In the case of `O=c1ncn(-c2cccc(F)c2)c2ccccc12`, the activation (light induction) was 12.4% (inactive).

On to `O=C(CSc1nc2c(c(=O)[nH]1)CCCC2)NC1CCCCC1`, for which the activation (light induction) was 0.02% (inactive).

As to `O=c1nc(Cc2ccccc2)n(-c2cccc(Cl)c2)c2ccccc12`, the activation (light induction) was 0.573% (inactive).

Staying with this experiment, now noted: V. cholerae BH1578 lux luminescence induction, 6 h; at 100 µM (top of the series).
Regarding `O=C(Nc1nnc(-c2cccnc2)o1)C1CCCCC1`, the activation (light induction) is 3.01% (inactive).

`CN(C)/C=N/c1nnc(-c2ccc3c(c2)OCCO3)o1`: the activation (light induction) was 0.03% (inactive).

For the molecule `O=C(Cc1ccc(-c2ccccc2)cc1)N[C@@H]1CCOC1` (racemic), the activation (light induction) was 12.2% (inactive).

Turning to `COc1ccc(S(=O)(=O)Nc2nnc(-c3ccc4c(c3)OCCO4)o2)cc1`, the activation (light induction) is 0.008% (inactive).

As for `CC(C)c1ccc2cc3c(NC(=O)c4ccco4)nn(C)c3nc2c1`, the activation (light induction) was 0.254% (inactive).

In the case of `O=C(Nc1nnc(-c2ccncc2)o1)C1CCC1`, the activation (light induction) was 0.061% (inactive).

`CN1CCC(C(=O)Nc2nnc(-c3ccc4c(c3)OCCO4)o2)CC1`: the activation (light induction) was 0.038% (inactive).

As for `O=C(Nc1nnc(-c2ccccc2Cl)o1)C1CCCCC1`, the activation (light induction) was 0.002% (inactive).

As to `O=C(Cc1ccc(-c2ccccc2)cc1)NC1COC1`, the activation (light induction) is 1.9% (inactive).

Consider `COc1ccc(-c2nnc(NC(C)=O)o2)cc1`, for which the activation (light induction) was 0.061% (inactive).

In the case of `Cn1ccc(NC(=O)c2ccco2)n1`, the activation (light induction) is 0.065% (inactive).

As to `Cc1ccc2cc3c(NC(=O)c4ccccn4)nn(C)c3nc2c1`, the activation (light induction) is -0.008% (inactive).

`CCn1nnnc1NC(C)c1ccc(N2CCCC2)cc1` (configuration not stated): the activation (light induction) is 11.2% (inactive).

`COc1cccc(-c2nnc(NC(=O)C3CCCCC3)o2)c1`: the activation (light induction) was 0% (inactive).

Consider `Cc1ccc2cc3c(NC(=O)Cc4ccco4)nn(C)c3nc2c1`, for which the activation (light induction) is 0.2% (inactive).

In the case of `O=C(Nc1nnc(-c2ccc3c(c2)OCCO3)o1)C1CCC1`, the activation (light induction) was 0.011% (inactive).

Turning to `CCn1nnnc1N`, the activation (light induction) was 0.004% (inactive).

For the molecule `CCn1nnnc1/N=C/c1ccc(N2CCCCC2)cc1`, the activation (light induction) is 0.106% (inactive).

`Cn1nc(NC(=O)c2ccco2)c2ccccc21`: the activation (light induction) was 0.203% (inactive).

`O=C(Cc1ccc(-c2ccccc2)cc1)NC1CNC1`: the activation (light induction) was 0.02% (inactive).

On to `Cc1ccc2cc3c(NC(=O)c4ccc(C)o4)nn(C)c3nc2c1`, for which the activation (light induction) was -0.007% (inactive).

Consider `O=C(Nc1nnc(-c2ccc3c(c2)OCCO3)o1)C1CC1`, for which the activation (light induction) was 0.006% (inactive).

As for `C(=N\c1nnc(-c2ccc3c(c2)OCCO3)o1)/c1ccccc1`, the activation (light induction) was 0.009% (inactive).

With `c1ccc(CNc2nnc(-c3ccc4c(c3)OCCO4)o2)cc1`, the activation (light induction) was 0.008% (inactive).

Regarding `Cn1nc(NC(=O)c2ccco2)c2cc3ccc(C(C)(C)C)cc3nc21`, the activation (light induction) is -0.001% (inactive).

Take `O=C(Nc1nnc(-c2cccnc2)o1)C1CCC1`: the activation (light induction) was 0% (inactive).

Take `O=C(Nc1nnc(C2CCCC2)o1)C1CCCCC1`: the activation (light induction) was -0.004% (inactive).

With `O=C(Nc1nnc(-c2ccc3c(c2)OCCO3)o1)C(F)(F)c1ccccc1`, the activation (light induction) is -0.005% (inactive).

For the molecule `CC(C)(C)OC(=O)N1CCC(C(=O)Nc2nnc(-c3ccc4c(c3)OCCO4)o2)CC1`, the activation (light induction) is 0.022% (inactive).

With `O=S(=O)(Nc1nnc(-c2ccc3c(c2)OCCO3)o1)c1ccc(Cl)cc1`, the activation (light induction) was -0.005% (inactive).

With `Cc1ccc2cc3c(NC(=O)c4cc5ccccc5o4)nn(C)c3nc2c1`, the activation (light induction) was -0.011% (inactive).

A further experiment concerns V. cholerae BH1578 lux luminescence induction, 6 h. Described as above.
Conditions: not given
Regarding `CCn1nnnc1NCc1ccc(C(C)C)cc1`, the AC40 was 0.923 µM.

Regarding `Cc1ccc2cc3c(NC(=O)c4ccco4)nn(C)c3nc2c1`, the AC40 was 10.4 µM and 54.6 µM.

In the case of `COc1ccc(-c2nnc(NC(=O)C3CCCCC3)o2)cc1`, the AC40 was > 100 µM (inactive).

As for `Cc1cc(F)cc2nc3c(cc12)c(NC(=O)c1ccco1)nn3C`, the AC40 was 83.3 µM.

On to `Cc1cc(F)c2cc3c(NC(=O)c4ccco4)nn(C)c3nc2c1`, for which the AC40 is > 100 µM (inactive).

`Cc1cc2nc3c(cc2cc1F)c(NC(=O)c1ccco1)nn3C`: the AC40 was 25.3 µM.

As to `Cc1ccc2cc3c(NC(=O)C4CCCC4)nn(C)c3nc2c1`, the AC40 is 73.5 µM.

As for `O=C(Cc1ccc(-c2ccccc2)cc1)NC1CCC1`, the AC40 is 1.74 µM.

`CCCCCCCCCC(=O)[C@H](O)CC` (racemic): the AC40 is 11.5 µM.

Regarding `O=c1ncn(-c2cc(Cl)cc(Cl)c2)c2ccccc12`, the AC40 was > 80 µM (inactive).

Turning to `O=C(Nc1nnc(-c2ccc3c(c2)OCCO3)o1)C1CCCCC1`, the AC40 is 5.45 µM and 1.91 µM.

For the molecule `Cn1nc(NC(=O)c2ccco2)c2cccnc21`, the AC40 was 48.8 µM.

As for `Cn1nc(NC(=O)c2ccco2)c2cc3ccccc3nc21`, the AC40 is 6.9 µM.

`Cc1cc2cc3c(NC(=O)c4ccco4)nn(C)c3nc2cc1C`: the AC40 was 45.7 µM.

Consider `Cc1ccc2cc3c(NC(=O)c4cccs4)nn(C)c3nc2c1`, for which the AC40 was > 80 µM (inactive).

Consider `CC(C)(C)COC(=O)CSc1n[nH]c(=O)[nH]c1=O`, for which the AC40 is 8.89 µM.

Take `COc1ccccc1-c1nnc(NC(=O)C2CCCCC2)o1`: the AC40 was > 100 µM (inactive).

Take `CCCCCCCCCC(=O)C(O)CC` (configuration not stated): the AC40 is 3.81 µM.

With `O=C(Nc1nnc(-c2ccc3c(c2)OCCO3)o1)C1CCCCCC1`, the AC40 was 11.8 µM.

On to `CCc1ccc2cc3c(NC(=O)c4ccco4)nn(C)c3nc2c1`, for which the AC40 was 52.1 µM.

With `COc1ccc2cc3c(NC(=O)c4ccco4)nn(C)c3nc2c1`, the AC40 is 2.97 µM.

These data come from PubChem BioAssay AID686929 (Broad Institute, 2013).
